pKi: −log10 of the molar value.
What was measured:
[1] = biological target: T1, rat histamine H3 receptor (Rattus norvegicus, UniProt Q9QYN8); experiment: Rat H3 radioligand binding ([3H]-N-alpha-methylhistamine, SPA); conditions: membranes of CHO-A3 cells expressing rat H3 receptor; [3H]-N-alpha-methylhistamine about 1 nM
T1 construct: encoding the entire 445-amino-acid rat histamine H3 receptor; expressed in transfected cells; membrane preparation
Excerpt: Cell line development and membrane preparation. The rat H3 receptor cDNA was PCR amplified from reverse-transcribed RNA pooled from rat thalamus, hypothalamus, striatum and prefrontal cortex with a sequence corresponding to by #338-1672 of Genbank file #NM_053506, encoding the entire 445-amino-acid rat histamine H3 receptor. This was engineered into the pIRES-neo3 mammalian expression vector, which was stably transfected into the CHO-A3 cell line (Euroscreen, Belgium), followed by clonal selection by limiting dilution. Cells were harvested and cell pellets were frozen (−80° C.). Cell pellets were resuspended in 5 mM Tris-HCl, pH 7.5 with […] and a cocktail of protease inhibitors (Complete Protease Inhibitior Tablets, Roche Diagnostics). Cells were disrupted using a polytron cell homogenizer and the suspension was centrifuged at 1000×g for 10 minutes at 4° C. The pellet was discarded and the supernatant centrifuged at 40,000×g for 30 min at 4° C. This membrane pellet was washed in membrane buffer containing 50 mM Tris-HCl, pH 7.5 with 0.6 mM EDTA, 5 mM MgCl2 and protease inhibitors, recentrifuged as above and the final pellet resuspended in membrane buffer plus 250 mM sucrose and frozen at −80° C.
(§1) Radioligand Binding. Membranes were resuspended in 50 mM Tris HCl (pH 7.4), 5 mM MgCl2, 0.1% BSA. The membrane suspensions (10 μg protein per well) were incubated in a 96 well microtiter plate with [^3H]-N-alpha-methylhistamine (approximately 1 nM final concentration), test compounds at various concentrations (0.01 nM-30 μM) and scintillation proximity beads (Perkin Elmer, FlashBlueGPCR Scintillating Beads) in a final volume of 80 μl for 4 hours at room temperature, protected from light. Non-specific binding was determined in the presence of 10 μM clobenpropit. Radioligand bound to receptor, and therefore in proximity to the scintillation beads, was measured using a MicroBeta scintillation counter.

[2] = biological target: T2, human H3 receptor (Homo sapiens, UniProt Q9Y5N1); experiment: Human H3 radioligand binding ([3H]-N-alpha-methylhistamine, SPA); conditions: membranes of CHO cells expressing human H3 receptor; [3H]-N-alpha-methylhistamine about 1 nM
T2 construct: expressed in transfected cells; membrane preparation
T2 sequence (Q9Y5N1 whole entry): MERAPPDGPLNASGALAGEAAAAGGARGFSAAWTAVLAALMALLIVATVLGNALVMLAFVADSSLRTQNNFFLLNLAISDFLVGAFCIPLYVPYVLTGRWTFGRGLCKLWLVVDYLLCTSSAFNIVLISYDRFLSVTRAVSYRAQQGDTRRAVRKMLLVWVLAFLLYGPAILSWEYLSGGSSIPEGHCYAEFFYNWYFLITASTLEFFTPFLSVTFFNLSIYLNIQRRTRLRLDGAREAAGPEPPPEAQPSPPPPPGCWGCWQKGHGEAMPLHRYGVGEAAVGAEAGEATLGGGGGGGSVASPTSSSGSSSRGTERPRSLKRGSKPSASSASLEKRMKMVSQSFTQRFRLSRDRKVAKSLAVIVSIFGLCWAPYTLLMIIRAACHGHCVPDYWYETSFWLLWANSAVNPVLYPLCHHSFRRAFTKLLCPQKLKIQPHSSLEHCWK
Description: Methods: CHO cells stably expressing the human H3 receptor (GenBank: NM_007232) were harvested and cell pellets were frozen (−80° C.). Cell pellets were resuspended in 5 mM Tris-HCl, pH 7.5 with […] and a cocktail of protease inhibitors (Complete Protease Inhibitior Tablets, Roche Diagnostics). Cells were disrupted using a polytron cell homogenizer and the suspension was centrifuged at 1000×g for 10 minutes at 4° C. The pellet was discarded and the supernatant centrifuged at 40,000×g for 30 min at 4° C. This membrane pellet was washed in membrane buffer containing 50 mM Tris-HCl, pH 7.5 with 0.6 mM EDTA, 5 mM MgCl2 and protease inhibitors, recentrifuged as above and the final pellet resuspended in membrane buffer plus 250 mM sucrose and frozen at −80° C.
as §1

T1 sequence (Q9QYN8 whole entry): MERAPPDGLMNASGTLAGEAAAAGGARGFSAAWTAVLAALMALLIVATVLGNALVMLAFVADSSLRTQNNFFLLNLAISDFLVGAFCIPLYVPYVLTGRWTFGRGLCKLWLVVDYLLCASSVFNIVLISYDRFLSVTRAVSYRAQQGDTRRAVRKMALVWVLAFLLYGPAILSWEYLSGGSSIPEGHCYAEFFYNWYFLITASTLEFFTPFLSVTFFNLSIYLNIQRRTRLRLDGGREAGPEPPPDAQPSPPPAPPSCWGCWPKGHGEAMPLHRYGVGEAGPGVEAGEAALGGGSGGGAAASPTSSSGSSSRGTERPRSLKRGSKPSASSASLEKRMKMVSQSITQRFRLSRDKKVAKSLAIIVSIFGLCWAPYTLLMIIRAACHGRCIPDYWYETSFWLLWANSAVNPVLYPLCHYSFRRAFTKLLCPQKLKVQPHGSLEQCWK

Row | Compound | pKi [1] | melting point | pKi [2]
1 | O=c1cc(-c2ccc3c(c2)CCC2(CCN(C4CCC4)CC2)O3)cn[nH]1 [Example 19] | > 6.70 | 216 to 219 °C | > 6.70
2 | O=C1CCC(c2ccc3c(c2)CCC2(CCN(C4CCC4)CC2)O3)=NN1 [Example 5] | > 6.70 | 242 to 243.5 °C | > 6.70
3 | Cc1cc(=O)[nH]nc1-c1ccc2c(c1)CC1(CCN(C3CCC3)CC1)O2 [Example 4, 6-(Cyclobutyl-spiro[benzofuran-2(3H),4′-piperidine]-5-yl)-5-methyl-2H-pyridazin-3-one] | > 6.70 | 243 to 245 °C | > 6.70
4 | O=c1ccc(-c2ccc3c(c2)COC2(CCN(C4CCC4)CC2)O3)n[nH]1 [Example 28] | > 6.70 | 273 to 275 °C | > 6.70
5 | CC1CC(=O)NN=C1c1ccc2c(c1)CCC1(CCN(C3CCC3)CC1)O2 (stereo not drawn) [Example 12, 1′-Cyclobutyl-6-(5-methyl-4,5-dihydro-2H-pyridazin-3-one-6-yl)-spiro[3,4-dihydrobenzopyran-2,4′-piperidine]] | > 6.70 | 207 to 209 °C | > 6.70
6 | CC1CC(=O)NN=C1c1ccc2c(c1)CC1(CCN(C3CCC3)CC1)O2 (stereo not drawn) [Example 3, 6-(1-Cyclobutyl-spiro[benzofuran-2(3H),4′-piperidine]-5-yl)-5-methyl-4,5-dihydro-2H-pyridazin-3-one] | 6.00 to 6.70 | 213 to 215 °C | > 6.70
7 | O=c1ccc(-c2ccc3c(c2)CC2(CCN(C4CCC4)CC2)O3)n[nH]1 [Example 16, 1′-Cyclobutyl-5-(6-oxo-1,6-dihydropyridazin-3-yl) spiro[benzofuran-2(3H)-4′-piperidine]] | > 6.70 | 227 to 228 °C | > 6.70

Next, values leading:

Row | pKi [1] | melting point | pKi [2] | Compound
8 | > 6.70 | 207 to 209 °C | > 6.70 | O=C1CCC(c2ccc3c(c2)CC2(CCN(C4CCC4)CC2)O3)=NN1 [Example 1, 6-(1-Cyclobutyl-spiro[benzofuran-2(3H),4′-piperidine]-5-yl)-4,5-dihydro-2H-pyridazin-3-one]
9 | > 6.70 | 258 to 259 °C | > 6.70 | O=c1[nH]nc(-c2ccc3c(c2)COC2(CCN(C4CCC4)CC2)O3)c2ccccc12 [Example 32]
10 | > 6.70 | 192 to 194 °C | > 6.70 | O=C1CCC(c2ccc3c(c2)COC2(CCN(C4CCC4)CC2)O3)=NN1 [Example 36]
11 | > 6.70 | 233 to 235 °C | > 6.70 | O=c1ccc(Oc2ccc3c(c2)CCC2(CCN(C4CCC4)CC2)O3)n[nH]1 [Example 18]
12 | > 6.70 | 185 to 187 °C | > 6.70 | Cn1nc(-c2ccc3c(c2)COC2(CCN(C4CCC4)CC2)O3)ccc1=O [Example 27]
13 | > 6.70 | 273 to 275 °C | > 6.70 | O=c1ccc(-c2ccc3c(c2)CCC2(CCN(C4CCC4)CC2)O3)n[nH]1 [Example 21]
14 | > 6.70 | 193 to 194 °C | > 6.70 | Clc1ccc(-c2ccc3c(c2)CC2(CCN(C4CCC4)CC2)O3)nn1 [Example 15, 1′-Cyclobutyl-5-(6-chloropyridazin-3-yl)spiro[benzofuran-2(3H)-4′-piperidine]]

From patent publication US8524713B2, “Substituted spirocyclic piperidine derivatives as histamine-3 (H3) receptor ligands” (Cephalon, Inc, priority 2008, dated 2013)
